Reference: patent US20220280661A1, “GLUCOCORTICOID RECEPTOR RADIOLIGANDS AND METHODS FOR THEIR PREPARATION AND USE” (The Regents of the University of California, priority 2019, published 2022)

Experiment: Post mortem biodistribution of [18F]-YJH08 at 30, 60, 90 min
Type: in vivo, mouse
Conditions: C57B16/J mice
Protocol: For a broader survey of radiotracer biodistribution post mortem, mice were euthanized after radiotracer injection with CO2(g) asphyxiation and dissected at dedicated time points post injection. The blood and tissues were removed, washed, dried and weighed. The activity of each tissue was measured with a gamma counter. All data was decay corrected. PRISM software was used to express a percentage (% ID/g) of the injected dose per gram of tissue. […] Table 2 provides a tabular representation of the biodistribution data collected 30, 60, 90 minutes after injection of [18F]-YJH08 in C57B16/J mice. The data are represented as mean standard deviation of the % ID/g.

COc1cccc2c1-c1ccc3c(c1C(Cc1ccc([18F])cc1)O2)C(C)=CC(C)(C)N3 (racemic) [[18F]-YJH08, [^18F]-5-(4-fluorobenzyl)-10-methoxy-2,2,4-trimethyl-2,5-dihydro-1H-chromeno[3,4-f]quinoline]
radiotracer uptake, Adrenal Gland (30 min after injection): 20.02 ± 2.21 % ID/g | radiotracer uptake, Blood (30 min after injection): 0.85 ± 0.1 % ID/g | radiotracer uptake, Bone (30 min after injection): 1.11 ± 0.15 % ID/g | radiotracer uptake, Brain (30 min after injection): 1.68 ± 0.14 % ID/g | radiotracer uptake, Heart (30 min after injection): 3.04 ± 0.75 % ID/g | radiotracer uptake, Kidney (30 min after injection): 4.5 ± 0.5 % ID/g | radiotracer uptake, Large intestine (30 min after injection): 1.33 ± 0.35 % ID/g | radiotracer uptake, Liver (30 min after injection): 11.03 ± 0.89 % ID/g | radiotracer uptake, Lung (30 min after injection): 2.65 ± 0.19 % ID/g | radiotracer uptake, Muscle (30 min after injection): 1.49 ± 0.2 % ID/g | radiotracer uptake, Pancreas (30 min after injection): 4.5 ± 0.15 % ID/g | radiotracer uptake, Small intestine (30 min after injection): 19.05 ± 3.27 % ID/g | radiotracer uptake, Spleen (30 min after injection): 1.59 ± 0.13 % ID/g | radiotracer uptake, Stomach (30 min after injection): 1.88 ± 0.96 % ID/g | radiotracer uptake, Supraspinal BAT (30 min after injection): 14.41 ± 3.42 % ID/g | radiotracer uptake, Adrenal Gland (60 min after injection): 9.43 ± 0.08 % ID/g | radiotracer uptake, Blood (60 min after injection): 0.57 ± 0.02 % ID/g | radiotracer uptake, Bone (60 min after injection): 0.61 ± 0.15 % ID/g | radiotracer uptake, Brain (60 min after injection): 1.33 ± 0.06 % ID/g | radiotracer uptake, Heart (60 min after injection): 1.33 ± 0.21 % ID/g | radiotracer uptake, Kidney (60 min after injection): 2.35 ± 0.34 % ID/g | radiotracer uptake, Large intestine (60 min after injection): 1.23 ± 0.43 % ID/g | radiotracer uptake, Liver (60 min after injection): 7.7 ± 0.69 % ID/g | radiotracer uptake, Lung (60 min after injection): 2.02 ± 0.29 % ID/g | radiotracer uptake, Muscle (60 min after injection): 1.15 ± 0.03 % ID/g | radiotracer uptake, Pancreas (60 min after injection): 2.63 ± 0.05 % ID/g | radiotracer uptake, Small intestine (60 min after injection): 8.61 ± 2.68 % ID/g | radiotracer uptake, Spleen (60 min after injection): 0.83 ± 0.02 % ID/g | radiotracer uptake, Stomach (60 min after injection): 1.63 ± 0.92 % ID/g | radiotracer uptake, Supraspinal BAT (60 min after injection): 16.4 ± 4.93 % ID/g | radiotracer uptake, Adrenal Gland (90 min after injection): 5.72 ± 2.32 % ID/g | radiotracer uptake, Blood (90 min after injection): 0.49 ± 0.06 % ID/g | radiotracer uptake, Bone (90 min after injection): 0.58 ± 0.16 % ID/g | radiotracer uptake, Brain (90 min after injection): 0.97 ± 0.03 % ID/g | radiotracer uptake, Heart (90 min after injection): 0.92 ± 0.14 % ID/g | radiotracer uptake, Kidney (90 min after injection): 1.86 ± 0.26 % ID/g | radiotracer uptake, Large intestine (90 min after injection): 6.67 ± 4.73 % ID/g | radiotracer uptake, Liver (90 min after injection): 8.43 ± 1.38 % ID/g | radiotracer uptake, Lung (90 min after injection): 1.39 ± 0.1 % ID/g | radiotracer uptake, Muscle (90 min after injection): 0.85 ± 0.18 % ID/g | radiotracer uptake, Pancreas (90 min after injection): 1.9 ± 0.41 % ID/g | radiotracer uptake, Small intestine (90 min after injection): 7.67 ± 2.34 % ID/g | radiotracer uptake, Spleen (90 min after injection): 0.74 ± 0.15 % ID/g | radiotracer uptake, Stomach (90 min after injection): 2.61 ± 1.54 % ID/g | radiotracer uptake, Supraspinal BAT (90 min after injection): 14.58 ± 1.91 % ID/g
